Test results from patent US20090270363A1, “2-Aryl- and 2-Heteroarylthiazolyl Compounds, Methods for Their Preparation and Use Thereof” (Wyeth, priority 2008, published 2009).

How the values were obtained:
Format in all cases: cell-based
[1] = tested on: securin "knock out" cells F3 (Securin-/-); test: Growth inhibition (sulforhodamine B, 5 days) of securin knock out cells F3; settings: for IC50: 120 h, securin knock out F3 cells, 5 days, SRB; for Selectivity Ratio F3: IC50 HCT116 / IC50 securin KO F3
Experimental: (§1) IC50 analysis was performed for selected fused bicyclic 2-aryl or 2-heteroarylthiazolyl compounds that were tested on HCT116 cells and Securin “knock out” cell lines.
(§2) Cell Culture—HCT116 and securin “knock out” cells. HCT116 and securin “knock out” cells (D8 and F3) were grown in RPMI+5% fetal bovine serum and gentamycin. They were maintained in a humidified 37° C. incubator with 5% CO2. Since the securin “knock out” cells have active chromosomal instability, cells were used at a low passage number of 2-13 passages. At or before passage 13 a new vial of cells was thawed and used for the screen. Cell seeding—HCT116 cells and securin “knock out” cells were trypsinized and suspended in RPMI+5% FBS at a density of 27,000 cells/mL. HCT116 and securin “knock out” cells were seeded separately in wells of a 96-well plate (Falcon Cat # 35-3872) at a cell density of 4000 cells per well. Cells were seeded in 150 μL of RPMI media containing 5% FBS and gentamycin. Cell seeding was performed under aseptic conditions. Cells were allowed to attach and grow overnight in a humidified 37° C. incubator.
(§3) Compound Dilution and Dispensation. A series of stock solutions, 10 mg/mL of fused bicyclic 2-aryl- or 2-heteroarylthiazolyl compounds to be tested, were brought to room temperature. The compounds were diluted 1:50 in RPMI+5% FBS (Highest concentration 200 μg/mL). The compounds were then serially diluted 1:3 across a deep-well titration plate resulting in final concentrations in the plate of 200, 66.7, 22.2, 7.4, 2.4, 0.8, 0.27, 0.091, 0.03, 0.01, and 0.0034 μg/mL with one well left without a compound. 50 μL of this dilution series was added to the 150 μL of cells to result in a final concentration of compound in with the cells of 50, 16.6, 5.5, 1.8, 0.6, 0.2, 0.068, 0.023, 0.0076, 0.0025, and 0.00084 μg/mL. The dilution and addition of compounds to the plates is performed using a Multimek 96 Robot (Beckman Coulter).
(§4) Incubation and analysis. After dosing, the cells in the 96 well plates were returned to the humidified 37° C. incubator. The compounds remained on the cells for 5 days. After 5 days, the cells were fixed to the plates with the addition of 50 μL of 50% (vol/vol) Trichloro Acetic Acid ([…]). The cells were fixed at 4° C. for 1 hour. The plates were washed 5 times in distilled water and allowed to dry. The cells were stained with 0.4% sulforhodamine B (Sigma) in 1% acetic acid. The cells were stained for 15 minutes at room temperature. The plates were then washed 3 times in 1% acetic acid. The plates were dried and the dye was solubilized in 10 mM Tris at pH 8.0. The plates were read on the Absorbence 560 setting on a Victor^2 V Model 1420 Multilabel HTS counter (Perkin Elmer).
(§5) Analysis of Results—IC50 data. Absorbence data was read off of the Victor and was converted to a percentage of the control (untreated) values. IC50 values were graphed and the point at which a 50% inhibition of the control level was determined. […] If the model was not able to determine an IC50, the IC50 was assigned to the lowest concentration that gives a 50% or greater decrease in absorbence compared to control levels. If the calculated IC50 value for a cell line exceeds the top concentration for the assay (typically 50 μg/mL), the assay was scored as >50.
(§6) Selectivity Ratio. The Selectivity Ratio is the ratio of IC50s between the parent cell line and the knock out cell line and is always a positive number and is typically an integer.

[2] = tested on: HCT116 cells (Securin+/+, securin parental, HCT116 FB); test: Growth inhibition (sulforhodamine B, 5 days) of securin parental cells; settings: Homo sapiens, HCT-116, 120 h, SRB
Experimental: as §1, §2, §3, §4, §5, §6

[3] = tested on: securin "knock out" cells D8 (Securin-/-); test: Growth inhibition (sulforhodamine B, 5 days) of securin knock out cells D8; settings: for IC50: 120 h, securin knock out D8 cells, 5 days, SRB; for Selectivity Ratio D8: IC50 HCT116 / IC50 securin KO D8
Experimental: as §1, §2, §3, §4, §5, §6

SMILES	IC50 [1] [µM]	Selectivity Ratio F3 [1]	IC50 [2] [µM]	IC50 [3] [µM]	Selectivity Ratio D8 [3]
Cc1cc(N(C)C)ccc1-c1nc2c(s1)[C@H](O)CCC2 [Example 99, (7R)-2-[4-(dimethylamino)-2-methylphenyl]-4,5,6,7-tetrahydro-1,3-benzothiazol-7-ol]	0.21	810	≥ 173	0.24	709
CC(C)OC(=O)c1cc(N(C)C)ccc1-c1nc2c(s1)C(O)CCC2 (stereo not shown) [Example 111, isopropyl 5-(dimethylamino)-2-(7-hydroxy-4,5,6,7-tetrahydro-1,3-benzothiazol-2-yl)benzoate]	1.4	71	100	1.3	75
C=CCOC(=O)c1cc(N(C)C)ccc1-c1nc2c(s1)C(O)CCC2 (stereo not shown) [Example 112, allyl 5-(dimethylamino)-2-(7-hydroxy-4,5,6,7-tetrahydro-1,3-benzothiazol-2-yl)benzoate]	0.72	135	97.3	0.54	182
CN(C)c1ccc(-c2nc3c(s2)C(O)CCC3)c(C(=O)OCc2ccoc2)c1 (stereo not shown) [Example 116, 3-furylmethyl 5-(dimethylamino)-2-(7-hydroxy-4,5,6,7-tetrahydro-1,3-benzothiazol-2-yl)benzoate]	0.82	104	85.2	0.59	145
CCCOC(=O)c1cc(N(C)C)ccc1-c1nc2c(s1)C(O)CCC2 (stereo not shown) [Example 121, propyl 5-(dimethylamino)-2-(7-hydroxy-4,5,6,7-tetrahydro-1,3-benzothiazol-2-yl)benzoate]	1.7	44	77.3	0.69	112
CN(C)c1ccc(-c2nc3c(s2)C(O)CCC3)c(C(=O)OCc2ccsc2)c1 (stereo not shown) [Example 122, 3-thienylmethyl 5-(dimethylamino)-2-(7-hydroxy-4,5,6,7-tetrahydro-1,3-benzothiazol-2-yl)benzoate]	2.1	20	42.2	0.76	55
CN(C)c1ccc(-c2nc3c(s2)C(O)CCC3)c(C(=O)OCc2cccs2)c1 (stereo not shown) [Example 123, 2-thienylmethyl 5-(dimethylamino)-2-(7-hydroxy-4,5,6,7-tetrahydro-1,3-benzothiazol-2-yl)benzoate]	4.4	20	90	1.7	52
CN(C)c1ccc(-c2nc3c(s2)C(O)CCC3)c(C(=O)OCc2cccnc2)c1 (stereo not shown) [Example 126, pyridin-3-ylmethyl 5-(dimethylamino)-2-(7-hydroxy-4,5,6,7-tetrahydro-1,3-benzothiazol-2-yl)benzoate]	2.5	40	100	1.9	54
CN(C)c1ccc(-c2nc3c(s2)C(O)CCC3)c(C(=O)OCc2ccncc2)c1 (stereo not shown) [Example 127, pyridin-4-ylmethyl 5-(dimethylamino)-2-(7-hydroxy-4,5,6,7-tetrahydro-1,3-benzothiazol-2-yl)benzoate]	6.3	16	100	4.9	20
CN(C)c1ccc(-c2nc3c(s2)C(O)CCC3)c(C(=O)OCc2ccccn2)c1 (stereo not shown) [Example 128, pyridin-2-ylmethyl 5-(dimethylamino)-2-(7-hydroxy-4,5,6,7-tetrahydro-1,3-benzothiazol-2-yl)benzoate]	2.6	33	86.7	1.9	45
C#CCOC(=O)c1cc(N(C)C)ccc1-c1nc2c(s1)C(O)CCC2 (stereo not shown) [Example 129, prop-2-yn-1-yl 5-(dimethylamino)-2-(7-hydroxy-4,5,6,7-tetrahydro-1,3-benzothiazol-2-yl)benzoate]	0.45	172	77.8	0.36	216
C/C=C/COC(=O)c1cc(N(C)C)ccc1-c1nc2c(s1)C(O)CCC2 (stereo not shown) [Example 130, (2E)-but-2-en-1-yl 5-(dimethylamino)-2-(7-hydroxy-4,5,6,7-tetrahydro-1,3-benzothiazol-2-yl)benzoate]	2.4	32	77.6	2	38
CC#CCOC(=O)c1cc(N(C)C)ccc1-c1nc2c(s1)C(O)CCC2 (stereo not shown) [Example 133, but-2-yn-1-yl 5-(dimethylamino)-2-(7-hydroxy-4,5,6,7-tetrahydro-1,3-benzothiazol-2-yl)benzoate]	1.8	54	96.5	1.1	87
CN(C)c1ccc(-c2nc3c(s2)C(O)CCC3)c(Br)c1 (stereo not shown) [Example 140, 2-[2-bromo-4-(dimethylamino)phenyl]-4,5,6,7-tetrahydro-1,3-benzothiazol-7-ol]	1.8	21	37.2	0.57	66
O=[N+]([O-])c1cc(N2CCCC2)ccc1-c1nc2c(s1)C(O)CCC2 (stereo not shown) [Example 151, 2-(2-nitro-4-pyrrolidin-1-ylphenyl)-4,5,6,7-tetrahydro-1,3-benzothiazol-7-ol]	0.053	724	38	0.046	832
C[S+]([O-])c1cc(N2CCCC2)ccc1-c1nc2c(s1)C(O)CCC2 (stereo not shown) [Example 155, 2-[2-(Methylsulfinyl)-4-pyrrolidin-1-ylphenyl]-4,5,6,7-tetrahydro-1,3-benzothiazol-7-ol]	0.17	224	38.8	0.099	390
OC1CCCc2nc(-c3ccc(N4CCCC4)cc3)sc21 (stereo not shown) [Example 158, 2-(4-pyrrolidin-1-yl-phenyl)-4,5,6,7-tetrahydro-benzothiazol-7-ol]	2.9	54	154	1.7	91
COC(=O)c1cc(N2CCCC2)ccc1-c1nc2c(s1)C(O)CCC2 (stereo not shown) [Example 161, 2-(7-Hydroxy-4,5,6,7-tetrahydro-benzothiazol-2-yl)-5-pyrrolidin-1-yl-benzoic acid methyl ester]	0.52	128	66.3	0.4	165
OCc1cc(N2CCCC2)ccc1-c1nc2c(s1)C(O)CCC2 (stereo not shown) [Example 162, 2-(2-Hydroxymethyl-4-pyrrolidin-1-yl-phenyl)-4,5,6,7-tetrahydro-benzothiazol-7-ol]	0.046	333	15.3	0.05	304
OC1CCCc2nc(-c3ccc(N4CCNCC4)cc3)sc21 (stereo not shown) [Example 163, 2-(4-piperazin-1-yl-phenyl)-4,5,6,7-tetrahydrobenzothiazol-7-ol]	22.9	1	31.6	25.9	1
